From ChEMBL document CHEMBL3046194, “Synthesis and antitumor activity of novel 4-aminoquinoline derivatives” (Med Chem Res, 2013)
Calls of active or inactive are those of the source. The rule behind the calls is not given here.

Key:
HepG2 = assay: Antitumor activity against Homo sapiens (human) HepG2 cells assessed as inhibition of cell viability after 72 hr by MTT assay; assay type: functional, cell-based; details: HepG2, 72 h
[1] = Antitumor activity against Homo sapiens (human) LN229 cells assessed as inhibition of cell viability after 72 hr by MTT assay; assay type: functional, cell-based; details: LN-229, 72 h
DU-145 = assay: Antitumor activity against Homo sapiens (human) DU145 cells assessed as inhibition of cell viability after 72 hr by MTT assay; assay type: functional, cell-based; details: DU-145, 72 h
A549 = assay: Antitumor activity against Homo sapiens (human) A549 cells assessed as inhibition of cell viability after 72 hr by MTT assay; assay type: functional, cell-based; details: A549, 72 h
HCT-116 [2] = assay: Antitumor activity against Homo sapiens (human) HCT116 cells assessed as inhibition of cell viability after 72 hr by MTT assay; assay type: functional, cell-based; details: HCT-116, 72 h
HEK293 = assay: Cytotoxicity against Homo sapiens (human) HEK293 cells assessed as inhibition of cell viability after 72 hr by MTT assay; assay type: cell-based; details: HEK293, 72 h
HCT-116 [3] = assay: Decrease in VEGF protein expression in Homo sapiens (human) HCT116 cells at 2.5 to 10 uM after 48 hr by westerrn blot analysis; assay type: functional, cell-based

COc1cc(OC)c2c(NCc3ccccc3)cc(-c3ccccc3)nc2c1
IC50 (HepG2): 10.9 µM
IC50 [1]: 7.15 µM
IC50 (DU-145): 10.1 µM
IC50 (A549): 12.8 µM
IC50 (HCT-116 [2]): 12 µM

COc1cc(OC)c2c(N3CCN(C)CC3)cc(-c3ccccc3)nc2c1
IC50 (HEK293): 3.66 µM
IC50 (HepG2): 22.6 µM
IC50 [1]: 1.75 µM
IC50 (DU-145): 16.4 µM
IC50 (A549): > 100 µM
IC50 (HCT-116 [2]): 7.43 µM

COc1cc(OC)c2c(NC3CCCCC3)cc(-c3ccccc3)nc2c1
IC50 (HepG2): 3.16 µM
IC50 [1]: 6.08 µM
IC50 (DU-145): 5.47 µM
IC50 (A549): 6.59 µM
IC50 (HCT-116 [2]): 3.82 µM

COc1cc(OC)c2c(N3CCOCC3)cc(-c3ccccc3)nc2c1
IC50 (HEK293): > 100 µM
IC50 (HepG2): > 100 µM
IC50 [1]: > 100 µM
IC50 (DU-145): > 100 µM
IC50 (A549): > 100 µM
IC50 (HCT-116 [2]): 28.1 µM

O=c1[nH]cc(F)c(=O)[nH]1 [FLUOROURACIL]
IC50 (HepG2): 19.2 µM
IC50 (DU-145): 2.95 µM
IC50 (A549): > 100 µM
IC50 (HCT-116 [2]): 1.93 µM

COc1cc(OC)c2c(Nc3ccccc3)cc(-c3ccccc3)nc2c1
IC50 (HEK293): 13.2 µM
IC50 (HepG2): 36.4 µM
IC50 [1]: 5.9 µM
IC50 (DU-145): 22.2 µM
IC50 (A549): > 100 µM
IC50 (HCT-116 [2]): 4.28 µM

COc1cc(OC)c2c(N3CCCCC3)cc(-c3ccccc3)nc2c1
IC50 (HEK293): 68.2 µM
IC50 (HepG2): > 100 µM
IC50 [1]: 66 µM
IC50 (DU-145): > 100 µM
IC50 (A549): > 100 µM
IC50 (HCT-116 [2]): 32 µM

COc1cc(OC)c2c(-n3ccnc3)cc(-c3ccccc3)nc2c1
IC50 (HepG2): 58.6 µM
IC50 [1]: 55.3 µM
IC50 (DU-145): > 100 µM
IC50 (A549): > 100 µM
IC50 (HCT-116 [2]): 42.4 µM

CCCNc1cc(-c2ccccc2)nc2cc(OC)cc(OC)c12
inhibition (HCT-116 [3]): Active
IC50 (HEK293): 2 µM
IC50 (HepG2): 5.21 µM
IC50 [1]: 1.82 µM
IC50 (DU-145): 9.77 µM
IC50 (A549): 13.1 µM
IC50 (HCT-116 [2]): 0.97 µM

CCCCNc1cc(-c2ccccc2)nc2cc(OC)cc(OC)c12
IC50 (HEK293): 3.23 µM
IC50 (HepG2): 4.46 µM
IC50 [1]: 3.92 µM
IC50 (DU-145): 4.63 µM
IC50 (A549): 19.6 µM
IC50 (HCT-116 [2]): 3.05 µM
